In patent US12065438B2, “Substituted tricyclic compounds as indoleamine 2,3-dioxygenase inhibitors” (Merck Sharp & Dohme LLC, priority 2019, dated 2024) one finds IC50 data, which are given here for 18 molecules.

Experiment [1] has as its target T1, IDO1 (Homo sapiens, UniProt P14902). Kind of experiment: IDO1 Cellular Assay in HeLa Cells Stimulated with IFNγ. In kind it is cell-based. The arrangement: endogenous in cells; host or cells: HeLa cells stimulated with IFNγ. The settings on record: HeLa cells stimulated with IFNγ 100 ng/mL, 300 uM L-tryptophan, about 48 hours, fluorescence readout; read-out: IDO1 HELA Cell Assay, IC50. How it is done: Biological Assays IDO1 Cellular Assay in HeLa Cells Stimulated with IFNγ HeLa cells were cultured in complete HeLa culture medium (90% EMEM, 10% heat-inactivated fetal bovine serum) and expanded to about 1×10^9 cells. The cells were then collected and frozen down at 1×10^7 cells/vial in 1 mL frozen medium (90% complete HeLa culture medium, 10% DMSO). Compounds to be tested were serially diluted in ten 3-fold steps in DMSO starting from 10 mM DMSO stocks in Echo low volume plate(s). Compound dilutions or DMSO alone were then dispensed from the dilution plate(s) into Greiner black 384-well assay plate(s) (catalog #781086, 50 nL/well) using an Echo 550 acoustic liquid handler (Labcyte). Frozen HeLa cells were thawed and transferred into HeLa assay medium (99% complete HeLa culture medium, 1% Pen/Strep) with 20 mL medium/vial of cells. The cells were spun down at 250 g in a table top centrifuge for 5 min and suspended in same volume of HeLa assay medium. The cells were then counted and adjusted to a density of 2×10^5 cells/mL in HeLa assay medium. Sterile L-tryptophan were added to the cells with final concentration of 300 uM L-tryptophan. A small aliquot (2 mL/plate) of HeLa cells were set aside and were not treated with IFNγ, to serve as the Max-E control. The rest of HeLa cells were added with sterile IFNγ (Cat #285-IF, R & D systems) with a final concentration of 100 ng/mL. HeLa cells with and without IFNγ were dispensed to the respective wells of 384-well assay plates containing the compounds. The plates were incubated for about 48 hours at a 37° C., 5% CO2 incubator. Afterwards, 12 μL of 0.5 M methyl isonipecotate in dimethyl sulfoxide were added into each well and the plates were sealed and incubated at 37° C. without CO2 overnight. The plates were centrifuged for 1 min at 200×g. The resulting fluorescence was measured in a Spectramax plate reader (Molecular Devices) with a 400 nm excitation filter and a 510 nm emission filter. The fluorescence intensity of each well was corrected for the background observed in wells with non-IFNγ-treated cells and was expressed as a fraction of the intensity observed in wells of IFNγ-treated cells and DMSO only. Potencies were calculated by […] least squares fit to the four parameter logistic IC50 equation.

The target in experiment [2] is T1, IDO1. Kind of experiment: IDO1 Human Whole Blood Assay. In kind it is cell-based. The settings on record: LPS and IFNγ 100 ng/mL, overnight (18 h), kynurenine by LC/MS/MS. How it is done: IDO1 Human Whole Blood Assay
Compounds to be tested were serially diluted in ten 3-fold steps in DMSO starting from 10 mM. 3 μL of compound dilutions or DMSO alone were then dispensed from the dilution plate into a polypropylene 96-well assay plate containing 97 μL of RPMI medium using an Echo 555 acoustic liquid handler (Labcyte). LPS and IFNγ was prepared in RPMI medium to a 10× of final conc. (1000 ng/mL), final concentration is 100 ng/mL.
240 μL of blood was transferred to each of the wells of a v-bottom 96 well plate. 30 μL of compound was transferred from intermediate dilution plate, and incubated for 15 min. 30 μL from stimulants was then transferred to blood and mixed thoroughly. Plate was covered with breathable membrane and incubated at 37° C. for overnight (18 h).
On day 2, isotope labeled standard solutions of kynurenine and tryptophan was made in water at 10× concentration and 30 μL was added to the blood at 3 μM final concentration. The assay plates were centrifuged at 300×G for 10 min with no brake to separate plasma from red blood cells. 60 μL of plasma samples was removed without disturbing red blood cells. Plasma was diluted with RPMI in 1:1 ratio and proteins were precipitated out with two volumes of Acetonitrile. The plates were centrifuged at 4000×G for 60 min. 20 μL of supernatant was carefully transferred to a 384 well plate containing 40 μL of 0.1% formic acid in water and analyzed by LC/MS/MS.
LC/MS/MS analyses were performed using Thermo Fisher's LX4-TSQ Quantum Ultra system. This system consists of four Agilent binary high-performance liquid chromatography (HPLC) pumps and a TSQ Quantum Ultra triple quadrupole MS/MS instrument. For each sample, 5 μL were injected onto an Atlantis T3 column (2.1 mm×150 mm, 3 μm particle size) from Waters. The mobile phase gradient pumped at 0.8 mL/min was used to elute the analytes from the column at 25° C. The elution started at 0% B increasing linearly to 25% B at 6.5 min, holding at 25% for 1 min, re-equilibrating to 10 min. Mobile phase A consisted of 0.1% formic acid in water. Mobile phase B consisted of 0.1% of formic acid in acetonitrile. Data were acquired in positive mode using a HESI interface. The operational parameters for the TSQ Quantum Ultra instrument were a spray voltage of 4000 V, capillary temperature of 380° C., vaporizer temperature 400° C., shealth gas 60 arbitrary units, Aux gas 20 arbitrary units, tube lens 85 and collision gas 1.2 mTorr. SRM chromatograms of kynurenine (Q1: 209.2>Q3:94.0) and internal standard (Q1: 215.3>Q3:98.2) were collected for 90 sec. The peak area was integrated by Xcalibur Quan software. The ratios between the kynurenine generated in the reaction and 2D6-Kynurenine spiked-in internal standard were used to generate percentage inhibition and IC50 values. Compounds were titrated and IC50's were calculated by 4 parameter sigmoidal curve fitting formula.

T1 sequence (P14902 whole entry): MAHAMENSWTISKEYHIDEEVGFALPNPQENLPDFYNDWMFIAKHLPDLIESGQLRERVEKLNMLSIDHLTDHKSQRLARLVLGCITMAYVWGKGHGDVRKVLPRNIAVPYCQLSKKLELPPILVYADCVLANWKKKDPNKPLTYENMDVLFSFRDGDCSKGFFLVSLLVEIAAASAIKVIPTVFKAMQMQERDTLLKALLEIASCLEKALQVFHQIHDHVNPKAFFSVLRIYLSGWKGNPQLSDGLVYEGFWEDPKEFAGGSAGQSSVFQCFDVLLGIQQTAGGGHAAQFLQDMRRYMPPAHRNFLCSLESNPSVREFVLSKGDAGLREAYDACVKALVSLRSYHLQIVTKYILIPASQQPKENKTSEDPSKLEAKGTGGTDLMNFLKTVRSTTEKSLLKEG

On to `O=C(NC1(c2ccc3c(n2)C2CC2CN3c2ccnc(C3CC3)n2)CC1)c1ccc(F)cc1` (stereo not shown) [Example 15, N-(1-(5-(2-cyclopropyl-pyrimidin-4-yl)-6,6a,7,7a-tetrahydro-5H-cyclo-propa[c][1,5]naphthyridin-2-yl)cyclopropyl)-4-fluorobenzamide], for which the IC50 at IDO1 [1] is 4.4 nM; against IDO1 [2], 50 nM.

In the case of `O=C(NC1(c2ccc3c(n2)[C@@H]2C[C@@H]2CN3C(=O)OC2CC2)CC1)c1ccc(F)cc1` (single isomer, unassigned) [Example 21], the figures for the IC50 at IDO1 [1] and at IDO1 [2] were 6.03 nM and 946 nM, respectively.

Take `O=C(NC1(c2ccc3c(n2)C2CC2CN3c2ccnc(C3CC3)n2)CC1)c1ccc(F)cc1` (stereo not shown) [Example 16, N-(1-(5-(2-cyclopropyl-pyrimidin-4-yl)-6,6a,7,7a-tetrahydro-5H-cyclo-propa[c][1,5]naphthyridin-2-yl)cyclopropyl)-4-fluorobenzamide]: the IC50 came to 2.6 nM on IDO1 [1] and 32 nM at IDO1 [2].

In the case of `CC(C)(O)c1nccc(N2CC3CC3c3nc(C4(NC(=O)c5ccc(F)cc5)CC4)ccc32)n1` (stereo not shown) [Example 18, 4-fluoro-N-(1-(5-(2-(2-hydroxypropan-2-yl)pyrimidin-4-yl)-6,6a,7,7a-tetrahydro-5H-cyclopropa[c][1,5]naphthyridin-2-yl)cyclopropyl)benzamide], the IC50 at IDO1 [1] is 12 nM; against IDO1 [2], 248 nM.

For the molecule `Cc1nccc(N2C[C@H]3C[C@H]3c3nc([C@@]4(NC(=O)c5ccc(F)cc5)C[C@@H]4C)ccc32)n1` [Example 45, 4-fluoro-N-((1R,2S)-2-methyl-1-((6aS,7aR)-5-(2-methyl-pyrimidin-4-yl)-6,6a,7,7a-tetra-hydro-5H-cyclopropa[c][1,5]-naphthyridin-2-yl)cyclopropyl)-benzamide], the IC50 on IDO1 [1] came out at 3.39 nM.

`Cc1nccc(N2c3ccc(C4(NC(=O)c5ccc(F)cc5)CC4)cc3C3CC32)n1` (single isomer, unassigned) [Example 8, 4-fluoro-N-(1-(2-(2-methylpyrimidin-4-yl)-1,1a,2,6b-tetrahydrocyclopropa[b]indol-5-yl)cyclopropyl)benzamide]: the half-maximal inhibitory concentration (IC50) at IDO1 [1] was found to be 2.91 nM.

As to `Cc1nccc(N2C[C@@H]3C[C@@H]3c3nc([C@@]4(NC(=O)c5ccc(F)cc5)C[C@H]4C)ccc32)n1` [Example 41, 4-fluoro-N-((1R,2R)-2-methyl-1-((6aR,7aS)-5-(2-methyl-pyrimidin-4-yl)-6,6a,7,7a-tetra-hydro-5H-cyclopropa[c][1,5]-naphthyridin-2-yl)cyclopropyl)-benzamide], on IDO1 [1], the IC50 turned out to be 2.36 nM.

`Cc1nccc(N2CC3CC3c3cc(C4(NC(=O)c5ccc(F)cc5)CC4)ccc32)n1` [Example 1, 4-fluoro-N-(1-((1aR,7bS)-3-(2-methylpyrimidin-4-yl)-1a,2,3,7b-tetrahydro-1H-cyclopropa[c]quinolin-6-yl)cyclopropyl)benzamide]: the IC50 on IDO1 [1] amounted to 1.67 nM.

Take `O=C(NC1(c2ccc3c(n2)[C@H]2C[C@H]2CN3C(=O)OC2CCOCC2)CC1)c1ccc(F)cc1` [Example 22, tetrahydro-2H-pyran-4-yl (6aR,7aS)-2-(1-(4-fluorobenzamido)cyclo-propyl)-6,6a,7,7a-tetra-hydro-5H-cyclopropa[c]-[1,5]naphthyridine-5-carboxylate]: the IC50 on IDO1 [1] is 61.6 nM.

For the molecule `CCC(NC(=O)c1ccc(F)cc1)c1ccc2c(n1)C1CC1CN2c1ccnc(C)n1` (racemic) [Example 38, 4-fluoro-N-(1-(5-(2-methyl-pyrimidin-4-yl)-6,6a,7,7a-tetrahydro-5H-cyclopropa[c]-[1,5]naphthyridin-2-yl)propyl)-benzamide], the IC50 on IDO1 [1] came to 6.77 nM.

Regarding `Cc1nccc(N2C[C@H]3C[C@H]3c3nc([C@@]4(NC(=O)c5ccc(F)cc5)C[C@H]4C)ccc32)n1` [Example 43, 4-fluoro-N-((1R,2R)-2-methyl-1-((6aS,7aR)-5-(2-methyl-pyrimidin-4-yl)-6,6a,7,7a-tetra-hydro-5H-cyclopropa[c][1,5]-naphthyridin-2-yl)cyclopropyl)-benzamide], the 50% inhibitory concentration (IC50) on IDO1 [1] was determined as 3.27 nM.

For `CCC(NC(=O)c1ccc(F)cc1)c1ccc2c(n1)C1CC1CN2C(=O)OC1CC1` (single isomer, unassigned) [Example 36, cyclopropyl 2-(1-(4-fluorobenzamido)propyl)-6,6a,7,7a-tetrahydro-5H-cyclopropa[c][1,5]naphthyridine-5-carboxylate], the IC50 at IDO1 [1] stood at 211 nM.

With `Cc1nccc(N2c3ccc(C4(NC(=O)c5ccc(F)cc5)CC4)cc3CC3CCC32)n1` (stereo not shown) [Example 5, 4-fluoro-N-(1-(3-(2-methylpyrimidin-4-yl)-1,2,2a,3,8,8a-hexahydrocyclobuta[b]quinolin-6-yl)cyclopropyl)benzamide], on IDO1 [1], the IC50 was found to be 4.71 nM.

Turning to `C[C@@H](NC(=O)c1ccc(F)cc1)c1ccc2c(n1)[C@H]1C[C@H]1CN2C(=O)OC1CC1` [Example 28, cyclopropyl (6aR,7aS)-2-((R)-1-(4-fluorobenzamido)-ethyl)-6,6a,7,7a-tetrahydro-5H-cyclopropa[c][1,5]-naphthyridine-5-carboxylate], the IC50 at IDO1 [1] came out at 29.3 nM.

Take `Cc1nccc(N2C[C@@H]3C[C@@H]3c3cc(C4(NC(=O)c5ccc(F)cc5)CC4)ccc32)n1` (single isomer, unassigned) [Example 2]: the IC50 on IDO1 [1] is 1.5 nM.

Take `CC(C)(C)OC(=O)N1C[C@H]2C[C@H]2c2nc(C3(NC(=O)c4ccc(F)cc4)CC3)ccc21` [Example 53, tert-butyl (6aS,7aR)-2-(1-(4-fluorobenzamido)cyclopropyl)-6,6a,7,7a-tetrahydro-5H-cyclo-propa[c][1,5]naphthyridine-5-carboxylate]: the half-inhibitory concentration (IC50) at IDO1 [1] came to 4.62 nM.

With `Cc1nccc(N2CC3CC3c3nc(C4(NC(=O)c5ccc(F)cc5)CC4C)ccc32)n1` (racemic) [Example 47, 4-fluoro-N-(2-methyl-1-(5-(2-methylpyrimidin-4-yl)-6,6a, 7,7a-tetrahydro-5H-cyclopropa[c][1, 5]naphthyridin-2-yl)cyclopropyl)benzamide], the IC50 on IDO1 [1] was determined as 52 nM.

`CC(C)(NC(=O)c1ccc(F)cc1)c1ccc2c(n1)C1CC1CN2` (stereo not shown) [Example 54, 4-fluoro-N-(2-(6,6a,7,7a-tetra-hydro-5H-cyclopropa[c][1,5]-naphthyridin-2-yl)propan-2-yl)-benzamide]: the IC50 at IDO1 [1] was determined as 4900 nM.
